pIC50: −log10 of the molar value. Like-named read-outs stand apart in the source and are kept apart here.
How the values were obtained:
Assay type in all cases: cell-based
ACHN = test: Bulk cancer cells, Cell Titer-Glo 72 hours (Test Example 2)
Procedure: (§1) Tubes of 3× drug (60 uM in 500 uL complete media) were prepared from 5 mM stock solutions in DMSO. […] To treat cells, 50 uL of drug from the dilution plate was removed and added to the cell plates. […] Cells were harvested 72 hours after drug addition using Cell Titer-Glo (Promega) and luminescence measured on a plate reader.

A549 = test: as above; conditions: Homo sapiens
Procedure: as §1

ACHN CSC = test: Cancer stem cells, Cell Titer-Glo 72 hours (Test Example 3)
FaDu CSC = test: as above
A549 CSC = test: as above; conditions: Homo sapiens
FaDu = test: Bulk cancer cells, Cell Titer-Glo 72 hours (Test Example 2); conditions: Homo sapiens
Procedure: as §1

SMILES | pIC50 (ACHN; Homo sapiens, ACHN, 72 h) | pIC50 (A549) | pIC50 (ACHN CSC; Homo sapiens, ACHN, 72 h) | pIC50 (FaDu CSC; Homo sapiens, FaDu, 72 h) | pIC50 (A549 CSC) | pIC50 (FaDu) | pIC50 (ACHN CSC) | pIC50 (ACHN) | pIC50 (FaDu CSC)
O=C1Nc2ccc(-c3csc(-c4ccccc4)n3)cc2/C1=C/c1cnc[nH]1 [Example 151] | 5.06 | 4.95 |  | 5.20 | 6.05 | 5.21 |  |  | 
O=C1Nc2ccc(-c3csc(-c4ccccc4)n3)cc2/C1=C/c1cc2c([nH]1)CCCC2 [Example 155] | 4.46 |  | 5.60 | 5.39 | 5.85 | 4.69 |  |  | 
CCN(CC)CCNC(=O)c1c(C)[nH]c(/C=C2\C(=O)Nc3cc(-c4ccc(-c5ccccc5)nc4)ccc32)c1C [Example 249] |  | 4.83 | 6.68 | 5.95 | 5.44 |  |  |  | 
CCN(CC)CCNC(=O)c1c(C)[nH]c(/C=C2\C(=O)Nc3ccc(-c4cnc(SC)cn4)cc32)c1C [Example 201] | 4.91 | 5.22 |  |  | 4.52 | 5.22 |  |  | 
CCN(CC)CCNC(=O)c1c(C)[nH]c(/C=C2\C(=O)Nc3ccc(-c4csc(C5CCNC5)n4)cc32)c1C (stereo not shown) [Example 133] | 5.17 | 6.14 |  |  | 4.49 | 5.62 |  |  | 
CCN(CC)CCNC(=O)c1c(C)[nH]c(/C=C2\C(=O)Nc3cc(-c4csc(-c5ccccc5)n4)ccc32)c1C [Example 7] |  |  | 6.72 | 6.22 | 5.43 | 5.74 |  |  | 
CCN(CC)CCNC(=O)c1c(C)[nH]c(/C=C2\C(=O)Nc3ccc(C4CCN(C5CCN(C(C)=O)CC5)CC4)cc32)c1C [Example 45] | 5.32 | 4.53 |  | 6.00 |  | 5.48 |  |  | 
O=C1Nc2ccc(-c3csc(-c4ccccc4)n3)cc2/C1=C/c1[nH]cc2ccccc12 [Example 162] |  |  | 5.39 | 5.30 |  |  |  |  | 
CCOC(=O)c1[nH]c(/C=C2\C(=O)Nc3ccc(-c4csc(-c5ccccc5)n4)cc32)c2c1CCCC2 [Example 164] | 6.08 |  | 5.80 | 5.54 |  |  |  |  | 
COC(=O)c1c(C)[nH]c(/C=C2\C(=O)Nc3ccc(-c4csc(-c5ccccc5)n4)cc32)c1C [Example 141] | 5.94 | 4.79 |  |  |  | 4.66 |  |  | 
CCN(CC)CCNC(=O)c1c(C)[nH]c(/C=C2\C(=O)Nc3ccc(-c4nnc(-c5ccccc5)s4)cc32)c1C [Example 52] |  | 4.31 |  | 6.64 |  | 5.67 |  |  | 
CCN(CC)CCNC(=O)c1c(C)[nH]c(/C=C2\C(=O)Nc3cc(-c4ccc(-c5ccccc5)cn4)ccc32)c1C [Example 256] |  |  | 5.54 | 5.93 | 5.31 | 4.70 |  |  | 
CCN(CC)CCNC(=O)c1c(C)[nH]c(/C=C2\C(=O)Nc3ccc(-c4cnc(-c5ccccc5)cn4)cc32)c1C [Example 199] | 4.59 | 4.77 |  | 4.41 | 4.36 | 4.76 |  |  | 
CCOC(=O)c1cc(C)c(/C=C2\C(=O)Nc3ccc(-c4csc(-c5ccccc5)n4)cc32)[nH]1 [Example 161] | 6.41 | 4.40 |  |  | 4.88 | 4.87 |  |  | 
CCN(CC)CCN1CCCc2[nH]c(/C=C3\C(=O)Nc4ccc(-c5csc(C6CCNCC6)n5)cc43)c(C)c2C1=O [Example 178] |  | 5.15 | 4.93 |  |  | 5.06 |  |  | 
O=C1Nc2ccc(-c3csc(-c4ccncc4)n3)cc2/C1=C/c1cc2c([nH]1)CCCC2 [Example 156] | 4.42 |  |  |  | 6.10 |  |  |  | 
Cc1[nH]c(/C=C2\C(=O)Nc3ccc(-c4cnn(-c5ccccc5)c4)cc32)c(C)c1C(=O)N1CCN(C)CC1 [Example 6] | 5.47 | 5.16 |  | 6.51 | 5.35 | 5.44 |  |  | 
CCN(CC)CCNC(=O)c1c(C)[nH]c(/C=C2\C(=O)Nc3cc(-c4nccc5ccccc45)ccc32)c1C [Example 255] | 5.19 | 5.15 | 5.72 | 4.61 |  | 5.04 |  |  | 
CCN(CC)CCNC(=O)c1c(C)[nH]c(/C=C2\C(=O)Nc3ccc(-c4csc(-c5ccc(C)cc5)n4)cc32)c1C [Example 102] |  |  | 6.16 | 5.47 | 4.98 |  |  |  | 
CCN(CC)CCNC(=O)c1c(C)[nH]c(/C=C2\C(=O)Nc3ccc(-c4cn(-c5ccccc5)nn4)cc32)c1C [Example 48] | 5.33 | 5.31 |  | 5.54 |  | 5.17 |  |  | 
Cc1[nH]c(/C=C2\C(=O)Nc3ccc(-c4csc(-c5ccccc5)n4)cc32)c(C)c1S(=O)(=O)N1CCCC1 [Example 146] | 4.90 | 5.54 | 5.30 | 5.18 |  | 5.26 |  |  | 
Cc1ccc(-c2nc(-c3ccc4c(c3)/C(=C/c3[nH]c(C)c(C(=O)N5CCN(C)CC5)c3C)C(=O)N4)cs2)cc1 [Example 104] | 5.37 | 5.07 |  | 5.70 | 6.35 | 5.10 |  |  | 
CCN(CC)CCNC(=O)c1c(C)[nH]c(/C=C2\C(=O)Nc3ccc(-c4n[nH]c5c(N)cccc45)cc32)c1C [Example 268] | 4.92 | 4.93 | 4.51 | 4.55 |  | 5.15 |  |  | 
CCN(CC)CCNC(=O)c1ccc(/C=C2\C(=O)Nc3ccc(-c4csc(-c5ccccc5)n4)cc32)[nH]c1=O [Example 121] | 5.48 | 5.44 |  | 5.21 |  | 5.51 |  |  | 
Cc1cc(C)c(/C=C2\C(=O)Nc3cc(-c4ccncc4)ccc32)[nH]1 [Example 250] |  |  |  |  | 6.01 | 4.73 |  |  | 
Cc1[nH]c(/C=C2\C(=O)Nc3ccc(-c4cnn(-c5ccccn5)c4)cc32)c(C)c1C(=O)N1CCN(C)CC1 [Example 31] |  | 4.72 |  | 6.62 | 4.93 | 5.44 |  |  | 
Cc1ccc(-c2ccc3c(c2)NC(=O)/C3=C\c2[nH]c(C)cc2C)cn1 [Example 244] | 4.66 |  | 5.34 | 5.44 | 4.63 |  |  |  | 
Cc1[nH]c(/C=C2\C(=O)Nc3ccc(-c4csc(-c5ccccc5)n4)cc32)c(C)c1CCC(=O)O [Example 148] |  |  |  |  | 5.78 |  |  |  | 

Second part, the compound after the results:

pIC50 (ACHN; Homo sapiens, ACHN, 72 h) | pIC50 (A549) | pIC50 (ACHN CSC; Homo sapiens, ACHN, 72 h) | pIC50 (FaDu CSC; Homo sapiens, FaDu, 72 h) | pIC50 (A549 CSC) | pIC50 (FaDu) | pIC50 (ACHN CSC) | pIC50 (ACHN) | pIC50 (FaDu CSC) | SMILES
4.89 | 4.68 |  |  |  |  |  |  |  | Cc1cc(C)c(/C=C2\C(=O)Nc3ccc(-c4cncnc4)cc32)[nH]1 [Example 212]
 | 4.74 | 5.60 | 5.06 | 5.23 |  |  |  |  | Cc1cc(C)c(/C=C2\C(=O)Nc3cc(-c4cnc5ccccc5n4)ccc32)[nH]1 [Example 242]
4.60 | 4.78 |  | 4.77 | 4.69 | 4.94 |  |  |  | Cc1cc(C)c(/C=C2\C(=O)Nc3ccc(-c4cnc5ccccn45)cc32)[nH]1 [Example 224]
4.88 | 4.96 |  | 4.88 | 4.40 | 4.87 |  |  |  | Cc1cc(C)c(/C=C2\C(=O)Nc3ccc(-c4cccc5ncccc45)cc32)[nH]1 [Example 259]
4.60 |  |  | 4.60 | 4.54 | 4.58 |  |  |  | Cc1cc(C)c(/C=C2\C(=O)Nc3ccc(-c4ncccn4)cc32)[nH]1 [Example 236]
4.60 | 4.59 |  |  |  |  | 8.00 |  |  | Cc1ccc(-c2ccc3c(c2)/C(=C/c2[nH]c(C)cc2C)C(=O)N3)cn1 [Example 213]
5.05 | 5.01 |  | 4.57 | 4.79 | 4.68 |  |  |  | Cc1cc(C)c(/C=C2\C(=O)Nc3ccc(-c4csc(-n5cccn5)n4)cc32)[nH]1 [Example 232]
 |  | 5.16 |  |  |  |  |  |  | Cc1cc(C)c(/C=C2\C(=O)Nc3ccc(-c4ccncc4)cc32)[nH]1 [Example 238]
4.98 | 5.10 |  | 7.05 |  | 4.59 |  |  |  | Cc1cc(C)c(/C=C2\C(=O)Nc3ccc(-c4cnc5ccccc5n4)cc32)[nH]1 [Example 217]
6.80 | 4.45 | 4.74 |  |  |  |  |  |  | CSc1cnc(-c2ccc3c(c2)/C(=C/c2[nH]c(C)cc2C)C(=O)N3)cn1 [Example 221]
 |  | 7.30 |  |  | 4.43 |  |  |  | Cc1ccc(-c2ccc3c(c2)/C(=C/c2[nH]c(C)cc2C)C(=O)N3)nc1 [Example 216]
 |  |  |  | 4.59 |  | 5.47 | 4.65 |  | Cc1ccc(-c2ccc3c(c2)/C(=C/c2[nH]c(C)cc2C)C(=O)N3)cn1 [Example 228]
 |  | 7.70 |  |  |  |  |  |  | Cc1cc(C)c(/C=C2\C(=O)Nc3ccc(-c4ccccn4)cc32)[nH]1 [Example 226]
4.37 |  | 4.77 | 4.36 |  | 4.57 |  |  |  | Cc1cc(C)c(/C=C2\C(=O)Nc3ccc(-c4cnsc4)cc32)[nH]1 [Example 220]
4.83 | 4.79 |  |  |  | 4.57 |  |  |  | Cc1cc(C)c(/C=C2\C(=O)Nc3ccc(-c4nc5ccccc5s4)cc32)[nH]1 [Example 235]
 |  |  |  |  |  | 8.00 |  | 4.32 | Cc1cc(C)c(/C=C2\C(=O)Nc3ccc(-c4ncccc4C)cc32)[nH]1 [Example 225]
5.10 | 4.65 | 8.00 | 4.39 |  |  |  |  |  | Cc1cc(C)c(/C=C2\C(=O)Nc3ccc(-c4ncccc4C)cc32)[nH]1 [Example 211]
 |  | 5.17 |  |  |  |  |  |  | Cc1cc(C)c(/C=C2\C(=O)Nc3ccc(-c4cnc(-c5ccccc5)cn4)cc32)[nH]1 [Example 233]
 | 4.90 |  | 5.81 | 5.06 | 5.28 |  |  |  | Cc1cc(C)c(/C=C2\C(=O)Nc3ccc(-c4cnc5cccnn45)cc32)[nH]1 [Example 234]
 | 4.86 |  |  | 4.45 | 4.65 |  |  |  | Cc1cc(C)c(/C=C2\C(=O)Nc3ccc(-c4cc(-c5ccccc5)ccn4)cc32)[nH]1 [Example 223]

Source: patent US20190241569A1, “3-(ARYL OR HETEROARYL) METHYLENEINDOLIN-2-ONE DERIVATIVES AS INHIBITORS OF CANCER STEM CELL PATHWAY KINASES FOR THE TREATMENT OF CANCER” (Boston Biomedical, Inc., priority 2013, published 2019)
